Data published in PubChem BioAssay AID623929 (Vanderbilt Specialized Chemistry Center, 2012).

Molecular target: Metabotropic glutamate receptor 2 (Rattus norvegicus) (UniProt P31421)
Test: PubChem AID 623929
Conditions: HEK293 GIRK rat mGlu2, thallium flux fluorescence; call rule not given here

Chain of Metabotropic glutamate receptor 2 (Rattus norvegicus) (P31421 whole entry, looked up): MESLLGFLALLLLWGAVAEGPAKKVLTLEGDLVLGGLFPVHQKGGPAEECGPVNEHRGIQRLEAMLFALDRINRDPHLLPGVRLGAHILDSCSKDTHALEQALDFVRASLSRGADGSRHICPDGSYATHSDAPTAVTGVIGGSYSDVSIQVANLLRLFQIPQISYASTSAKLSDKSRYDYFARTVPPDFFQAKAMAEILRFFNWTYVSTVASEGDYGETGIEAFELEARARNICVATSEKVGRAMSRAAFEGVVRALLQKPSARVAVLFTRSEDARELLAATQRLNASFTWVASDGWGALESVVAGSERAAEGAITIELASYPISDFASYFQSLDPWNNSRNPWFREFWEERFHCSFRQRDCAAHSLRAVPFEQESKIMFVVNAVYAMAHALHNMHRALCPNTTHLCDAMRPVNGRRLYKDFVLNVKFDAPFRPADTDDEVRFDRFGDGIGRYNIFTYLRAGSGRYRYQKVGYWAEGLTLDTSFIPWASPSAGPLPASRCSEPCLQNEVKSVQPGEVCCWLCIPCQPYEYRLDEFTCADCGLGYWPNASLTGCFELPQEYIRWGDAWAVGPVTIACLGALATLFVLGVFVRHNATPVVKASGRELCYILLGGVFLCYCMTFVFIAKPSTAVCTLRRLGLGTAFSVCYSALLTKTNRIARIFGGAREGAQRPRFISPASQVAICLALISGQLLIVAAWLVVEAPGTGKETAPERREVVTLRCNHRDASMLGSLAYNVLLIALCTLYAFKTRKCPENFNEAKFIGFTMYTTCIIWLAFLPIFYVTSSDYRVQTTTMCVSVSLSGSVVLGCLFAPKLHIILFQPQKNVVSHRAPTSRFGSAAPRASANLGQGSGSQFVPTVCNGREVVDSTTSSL

IC50, active:
COc1ccc(C#Cc2ccc(C(=O)N3CCC[C@@H](CO)C3)cc2)cc1 10 µM
COc1ccc(C#Cc2ccc(C(=O)N3CCCC(CO)C3)cc2)cc1 (stereo not drawn) 10 µM
COc1ccc(C#Cc2ccc(C(=O)N3CCC[C@H](CO)C3)cc2)cc1 10 µM
